Data taken from patent US5554359A, “Pigmentation enhancer and method” (priority 1994, dated 1996).

Columns and labels:
[1] = tested on: tyrosinase activity in human melanocytes; experiment: Tyrosinase responses in human melanocytes (Table 6); type: cell-based; details: Table 6; 10^-7 M except IBMX 10^-4 M, theophylline 1 mM, ammonium chloride 10 mM, A23187 not given; melanocytes from skin type III
Experimental: (§1) The mouse melanoma cell lines used to study the effects of lysosomotropic agents herein were the Cloudman S91 cell line (ATCC no. CCL 53.1) and two subclones of this line developed in our laboratory, the amelanotic line, AM-7, and a melanotic line, MEL-11A. All melanoma cell lines were grown in Ham's F-10 nutrient medium supplemented with 10% horse serum, penicillin (100 units/ml), and streptomycin (100 μg/ml). The normal human melanocyte cell strains used in this study were derived from foreskins of either neonares or from boys 2-6 years old. Human melanocyte cultures were grown in Ham's F-10 nutrient medium supplemented with 10% horse serum, 5% fetal bovine serum (FBS), 32 nM TPA (12-O-tetradecanoylphorbol 13-acetate), 10^-4 M IBMX(3-isobutyl-1-methylxanthine), penicillin (100 units/ml), and streptomycin (100 μg/ml).
(§2) To determine tyrosinase activity in situ in either melanoma cells or in human melanocyte cultures, the tyrosine hydroxylase activity of the enzyme was determined. Cells were seeded into 60-mm culture dishes at 2×10^5 cells/dish and allowed to attach overnight. The medium was then exchanged for the appropriate growth medium supplemented with 1 μCi/ml of [^3 H]tyrosine (L-ring-3,5-^3 H]-tyrosine, DuPont New England Nuclear), and with hormones, where indicated. Cells were grown in labeled medium for 24 hours, and at this time, the medium was removed and assayed for the presence of ^3 H2 O using the charcoal absorption method of Pomerantz. Tyrosinase activity in cell homogenates was determined by sonicating cell pellets in 0.1-M sodium phosphate buffer (pH 6.8) and then incubating 50-μl aliquots in 0.5 ml of a reaction mixture containing 0.1-mM tyrosine, 2 μCi/ml of [^3 H]tyrosine, 0.1-mM L-DOPA (dihydroxyphenylalanine), and 0.1 mM PMSF (phenylmethylsulfonyl fluoride) at 37° C. for 2 hours. Reactions were terminated by the addition of 1 ml of charcoal (10% w/v in 0.1-N HCl). Samples were centrifuged, and the supernatants removed for determination of the amount of ^3 H2 O produced.
Hormone responsiveness in human melanocyte cell cultures were examined (for these studies, melanocytes derived from skin type III were used). […] Tyrosinase activity and melanin content typically double with a 48-hour exposure to IBMX. […] The steroid hormones, for the most part, caused little, if any, change in tyrosinase activity at the concentrations used.

[2] = tested on: tyrosinase activity in mouse melanoma cells; experiment: Tyrosinase responses in mouse melanoma cells (Table 6); type: cell-based; details: Table 6; 10^-7 M except IBMX 10^-4 M, theophylline 1 mM, ammonium chloride 10 mM, A23187 not given
Experimental: as §1
as §2, with “produced. […]” for “produced.”

[3] = tested on: tyrosinase activity in human foreskin organ cultures; experiment: Tyrosinase activity in human foreskin organ cultures (tyrosine hydroxylase assay); type: cell-based
Experimental: At the time of surgical removal, human foreskins were placed on sterile gauze saturated with sterile IMDM medium (Iscove's modified Dulbecco's medium purchased from Irvine Scientific of Santa Ana, Calif.) for transportation from the Hospital nursery to the laboratory. The tissues were rinsed in sterile IMDM medium containing 500 U/ml penicillin and 500 μg/ml of streptomycin for 5 minutes. Under sterile conditions, an intradermal injection of medium was performed from the dermal side prior to dissection of the mucous membrane and lower dermis by scissors to make the thickness of skins equal. The foreskins were then cut into approximately 3 mm×3 mm squares and either frozen at -75° C. or placed in organ culture as described hereafter.
The organ culture medium was prepared from IMDM with glutamine supplemented with 20% horse serum, 5% fetal bovine serum, 100 U/ml penicillin, 100 μg/ml streptomycin and 3 mg/ml sodium bicarbonate. The serums were obtained from Hyclone Lab. Inc. of Logan Utah. Culture units were prepared by placing sterilized filters (AP20 025 00, Millipore) over sterilized support screens ([…] Swinnex filter support screens, Millipore) in the wells of 6-well tissue culture plates (Falcon 3046) with medium added to the wells such that the skin support screens floated and the filter absorbed the medium from beneath. The tissue samples were placed, epidermis up, on top of the saturated filters and incubated at 37° C. in a 5% CO2 humidified atmosphere. The medium was changed everyday. Harvested cultures were frozen at -75° C.
Tyrosinase activity in human skin organ cultures was determined by measuring the tyrosine hydroxylase activity of the enzyme. The assay measures the production of ^3 H2 O during the conversion of [^3 H]tyrosine to L-DOPA. Weighed skin preparations were incubated in 0.3 ml of a reaction mixture containing 0.01 mM of L-tyrosine, 5-6 uCi/ml of [^3 H]tyrosine and 0.1 mM L-DOPA in 0.1M of pH 6.8 phosphate buffer for 4 hours at 37° C. To terminate the reaction, 1 ml of phosphate buffer was added, the tubes vortexed, and 0.4 ml aliquots removed in triplicate and mixed with an equal volume of Norit SG activated charcoal (10% w/v, in 0.1N HCl). Following centrifugation at 2000×g for 10 min, the supernatants (0.5 ml) were placed in scintillation vials, scintillation fluid added, and vials counted in a TM Analytic 6895 scintillation counter equipped with a DPM processor.
Human foreskins were treated with the compounds shown in Table 1, placed in culture, and incubated for 72 hours. The skins were then assayed for tyrosinase activity with the tyrosine hydroxylase assay method as described herein.
The medium and compounds were changed daily. Tyrosinase activity was determined by measuring the tyrosine hydroxylase activity of the enzyme.
Human foreskin organ cultures were treated with the compounds listed in Table 3 for 3 days and tyrosinase activity determined as described herein. Theophylline was used at 1 mM.

[4] = tested on: tyrosinase activity in mouse melanoma cells; details: Cloudman S91; cited from earlier work
[5] = tested on: tyrosinase activity in human melanocytes from white-skinned individuals; experiment: Tyrosinase activity in human melanocytes from white skin; type: cell-based; details: cell strain 69W; up to four hours; FIG. 8
Experimental: as §1, §2
Dose/response parameters for ammonium chloride action were determined. […] Since tyrosinase is the rate-limiting enzyme for melanin synthesis, the stimulation of this enzyme by ammonium chloride should lead to increased melanin content of stimulated cells. […] Ammonium chloride increased tyrosinase activity in melanocytes from white-skinned individuals twenty-fold within 24 hours and by this time melanin contents had increased two-fold. Two other lysosomotropic agents, monensin and nigericin, were tested for their effects on tyrosinase activity. […] Thus, lysosomotropic agents have the ability to stimulate tyrosinase activity and melanin production in human melanocytes derived from white-skinned individuals, and to reduce melanin production in melanocytes from black-skinned people.

[6] = Table 1, B = black, 72 h, Theophylline 1 mM, MSH 2 × 10^-7 M, dbcAMP 0.1 mM, D-phe-MSH 10^-8 M
[7] = Table 1, W = white, 72 h, Theophylline 1 mM, MSH 2 × 10^-7 M, dbcAMP 0.1 mM, D-phe-MSH 10^-8 M

| Compound | Effect on Tyrosinase Activity, Human Melanocyte [1] | Effect on Tyrosinase Activity, Mouse Melanoma [2] | further results |
| --- | --- | --- | --- |
| C[C@]12CC[C@@H]3c4ccc(O)cc4CC[C@H]3[C@@H]1CC[C@@H]2O [Estradiol] | Inhibited | No Effect | – |
| CC1(C)O[C@@H]2C[C@H]3[C@@H]4CCC5=CC(=O)C=C[C@]5(C)[C@@]4(F)[C@@H](O)C[C@]3(C)[C@]2(C(=O)CO)O1 [Triamcinolone acetonide] | ± (100-150% of control) | ± (100-150% of control) | – |
| CCCCC[C@H](O)/C=C/[C@H]1[C@H](O)CC(=O)[C@@H]1CCCCCCC(=O)O [Prostaglandin E1] | + (150-200%) | – | – |
| CCCC(=O)Nc1ncnc2c1ncn2[C@@H]1O[C@@H]2COP(=O)(O)O[C@H]2[C@H]1OC(=O)CCC [dbcAMP, dibutyryl cyclic AMP] | – | – | Tyrosinase activity stimulated, percentage of black foreskins [3, 6]: 33%; Tyrosinase activity unaffected, percentage of black foreskins [3, 6]: 67%; Tyrosinase activity stimulated, percentage of white foreskins [3, 7]: 25%; Tyrosinase activity unaffected, percentage of white foreskins [3, 7]: 75%; stimulation of tyrosinase activity ([3]; human foreskins, 72 hours): less effective in stimulating tyrosinase activity; mimicking of the MSH response [4]: mimicked |
| Nc1ncnc2c1nc(Br)n2[C@@H]1O[C@@H]2COP(=O)(O)O[C@H]2[C@H]1O [8-bromo cAMP] | – | – | mimicking of the MSH response [4]: mimicked |
| C[C@]12CC[C@H]3[C@@H](CCC4=CC(=O)CC[C@@]43C)[C@@H]1CC[C@@H]2O [Testosterone] | No effect | No effect | – |
| CC(=O)[C@H]1CC[C@H]2[C@@H]3CCC4=CC(=O)CC[C@]4(C)[C@H]3CC[C@]12C [Progesterone] | ± (100-150% of control) | ± (100-150% of control) | – |
| CCCCCCCCCCCCCC(=O)O[C@@H]1[C@@H](C)[C@@]2(O)[C@@H](C=C(CO)C[C@]3(O)C(=O)C(C)=C[C@@H]23)[C@@H]2C(C)(C)[C@]12OC(C)=O [TPA, 12-O-tetradecanoylphorbol 13-acetate] | No effect | – | – |
| Insulin: Insulin | No effect | – | – |
| C=C1CC[C@H](O)C/C1=C/C=C1\CCC[C@]2(C)[C@@H]([C@H](C)CCCC(C)C)CC[C@@H]12 [Vitamin D3] | No effect | No effect | – |
| CNc1ccc2oc(C[C@H]3O[C@@]4(CC[C@H]3C)O[C@H]([C@H](C)C(=O)c3ccc[nH]3)[C@H](C)C[C@H]4C)nc2c1C(=O)O [A23187] | No effect | Inhibited | – |
| CC[C@@]1([C@@H]2O[C@@H]([C@H]3O[C@@](O)(CO)[C@H](C)C[C@@H]3C)C[C@@H]2C)CC[C@H]([C@]2(C)CC[C@]3(C[C@H](O)[C@@H](C)[C@@H]([C@@H](C)[C@@H](OC)[C@H](C)C(=O)O)O3)O2)O1 [monensin] | – | – | stimulation of tyrosinase activity [5]: stimulated tyrosinase activity |
| CO[C@@H]1C[C@@H](C[C@H]2CC[C@H](C)[C@H]([C@@H](C)C(=O)O)O2)O[C@]2(O[C@](C)([C@H]3CC[C@@](C)([C@@H]4O[C@@H]([C@H]5O[C@@](O)(CO)[C@H](C)C[C@@H]5C)C[C@@H]4C)O3)C[C@H]2C)[C@@H]1C [nigericin] | – | – | stimulation of tyrosinase activity [5]: stimulated tyrosinase activity |
